Measured values taken from US12252492B2, “Substituted fused pyrrolo-diazepinones and uses thereof” (Northwestern University, priority 2018, dated 2025).

Columns and labels:
Type in all cases: cell-based, human
K-562 = experiment: NCI60 one-dose screen, K-562; conditions: K-562 (Leukemia); NCI 60 one-dose, 10^-5 M
Method: (§1) Anti-cancer activity screening of all compounds was performed by the NCI Developmental Therapeutics Program (DTP) through their NCI60 screening initiative. Assay details can be found at the website dtp.cancer.gov/discovery_development/nci-60/methodology.htm. Information from this website is reproduced here for convenience.
(§2) As of early 2007 all compounds submitted to the NCI 60 Cell screen are tested initially at a single high dose (10^-5 M) in the full NCI 60 cell panel. Only compounds which satisfy pre-determined threshold inhibition criteria in a minimum number of cell lines will progress to the full 5-dose assay. The threshold inhibition criteria for progression to the 5-dose screen was selected to efficiently capture compounds with anti-proliferative activity based on careful analysis of historical DTP screening data. The threshold criteria may be updated as additional data becomes available.
(§3) The One-dose data will be reported as a mean graph of the percent growth of treated cells and will be similar in appearance to mean graphs from the 5-dose assay. […]
(§4) Following drug addition, the plates are incubated for an additional 48 h at 37° C., 5% CO2, 95% air, and 100% relative humidity. […] Bound stain is subsequently solubilized with 10 mM trizma base, and the absorbance is read on an automated plate reader at a wavelength of 515 nm. […]

RPMI-8226 = experiment: NCI60 one-dose screen, RPMI-8226; conditions: RPMI-8226 (Leukemia); NCI 60 one-dose, 10^-5 M
Method: as §1, §2, §3, §4

HCT-15 = experiment: NCI60 one-dose screen, HCT-15; conditions: HCT-15 (Colon Cancer); NCI 60 one-dose, 10^-5 M
Method: as §1, §2, §3, §4

SNB-75 = experiment: NCI60 one-dose screen, SNB-75; conditions: SNB-75 (CNS Cancer); NCI 60 one-dose, 10^-5 M
Method: as §1, §2, §3, §4

MDA-MB-435 = experiment: NCI60 one-dose screen, MDA-MB-435; conditions: MDA-MB-435 (Melanoma); NCI 60 one-dose, 10^-5 M
Method: as §1, §2, §3, §4

UACC-62 = experiment: NCI60 one-dose screen, UACC-62; conditions: UACC-62 (Melanoma); NCI 60 one-dose, 10^-5 M
Method: as §1, §2, §3, §4

IGROV1 = experiment: NCI60 one-dose screen, IGROV1; conditions: IGROV1 (Ovarian Cancer); NCI 60 one-dose, 10^-5 M
Method: as §1, §2, §3, §4

OVCAR-3 = experiment: NCI60 one-dose screen, OVCAR-3; conditions: OVCAR-3 (Ovarian Cancer); NCI 60 one-dose, 10^-5 M
Method: as §1, §2, §3, §4

OVCAR-8 = experiment: NCI60 one-dose screen, OVCAR-8; conditions: OVCAR-8 (Ovarian Cancer); NCI 60 one-dose, 10^-5 M
Method: as §1, §2, §3, §4

NCI/ADR-RES = experiment: NCI60 one-dose screen, NCI/ADR-RES; conditions: NCI/ADR-RES (Ovarian Cancer); NCI 60 one-dose, 10^-5 M
Method: as §1, §2, §3, §4

CAKI-1 = experiment: NCI60 one-dose screen, CAKI-1; conditions: CAKI-1 (Renal Cancer); NCI 60 one-dose, 10^-5 M
Method: as §1, §2, §3, §4

RXF 393 = experiment: NCI60 one-dose screen, RXF 393; conditions: RXF 393 (Renal Cancer); NCI 60 one-dose, 10^-5 M
Method: as §1, §2, §3, §4

TK-10 = experiment: NCI60 one-dose screen, TK-10; conditions: TK-10 (Renal Cancer); NCI 60 one-dose, 10^-5 M
Method: as §1, §2, §3, §4

UO-31 = experiment: NCI60 one-dose screen, UO-31; conditions: UO-31 (Renal Cancer); NCI 60 one-dose, 10^-5 M
Method: as §1, §2, §3, §4

HS 578T = experiment: NCI60 one-dose screen, HS 578T; conditions: HS 578T (Breast Cancer); NCI 60 one-dose, 10^-5 M
Method: as §1, §2, §3, §4

BT-549 = experiment: NCI60 one-dose screen, BT-549; conditions: BT-549 (Breast Cancer); NCI 60 one-dose, 10^-5 M
Method: as §1, §2, §3, §4

MDA-MB-468 = experiment: NCI60 one-dose screen, MDA-MB-468; conditions: MDA-MB-468 (Breast Cancer); NCI 60 one-dose, 10^-5 M
Method: as §1, §2, §3, §4

NCI60 Cell Line Panel = experiment: NCI60 one-dose screen, whole panel statistics; conditions: mean over the NCI60 cell line panel, 10^-5 M
Method: as §1, §2, §3, §4

Structure (SMILES)	Growth Percent (K-562)	Growth Percent (RPMI-8226)	Growth Percent (HCT-15)	Growth Percent (SNB-75)	Growth Percent (MDA-MB-435)	Growth Percent (UACC-62)	Growth Percent (IGROV1)	Growth Percent (OVCAR-3)	Growth Percent (OVCAR-8)	Growth Percent (NCI/ADR-RES)	Growth Percent (CAKI-1)	Growth Percent (RXF 393)	Growth Percent (TK-10)	Growth Percent (UO-31)	Growth Percent (HS 578T)	Growth Percent (BT-549)	Growth Percent (MDA-MB-468)	Growth Percent, Mean (NCI60 Cell Line Panel)
CC(=O)N1c2ccccc2NC2=C(C(=O)N(C)C2(C)C)C1c1ccccc1 (stereo not drawn) [NUCC-60872]	16.57%	12.61%	93.83%	−3.29%	−67.83%	32.33%	39.64%	18.09%	65.84%	101.74%	71.91%	27.79%	87.08%	81.99%	20.42%	69.46%	19.19%	41.43%
CC(=O)N1c2ccccc2NC2=C(C(=O)N(Cc3ccccc3)C2(C)C)C1c1ccco1 (stereo not drawn) [NUCC-608455]	12.60%	23.43%	15.65%	16.83%	−56.24%	21.25%	26.78%	−7.65%	26.13%	82.92%	42.97%	−11.72%	54.92%	52.54%	10.67%	47.62%	−1.86%	23.48%
